Values after ≈ are worked out from the molar mass of the structure shown.

Results on three compounds are retold here after US4247542A, “A-40104 Antibiotics and process for production thereof” (priority 1978, dated 1981).

In series [1] the test system is Pasteurella multocida (turkey). Briefly: standard in vitro test against Pasteurella. In kind it is cell-based. The source says: Another veterinary aspect of this invention is the activity of the A-40104 antibiotics against Pasteurella species. P. multocida, for example, is a causative agent of respiratory infection in cattle, poultry, and swine. P. hemolytica is a major cause of respiratory disease in cattle. The activity of A-40104 factor A and its dihydro derivative against Pasteurella, as determined by standard in vitro tests, is summarized in Table X.

A further series has as its system Spiroplasma citri. As to the kind of experiment: in vitro test against Spiroplasma citri. The following applies: levels as low as, read-out: level inhibiting S. citri. In kind it is cell-based. The text has this:
Another important aspect of this invention is the activity of the A-40104 antibiotics against Spiroplasmas. Spiroplasma citri is the causative agent of citrus-stubborn disease; another Spiroplasma, corn-stunt Spiroplasma, affects the growth of corn. In in vitro tests against Spiroplasma citri A-40104 factor A and its dihydro derivative inhbit S. citri when applied at levels as low as 0.01 ppm.

For a further series, the system named is Eubacterium aerofaciens. Briefly: standard agar-dilution test, anaerobic bacteria. In kind it is cell-based. The conditions noted are these: Collinsella aerofaciens, read after 24 hours. The source says: Table VIII summarizes the activity of A-40104 factor A, as determined by the standard agar-dilution test.
*MIC determined by the agardilution method. Endpoints were read after 24

Another series has as its system Mycoplasma gallisepticum. Briefly: in vitro broth-dilution MIC, mycoplasma. In kind it is cell-based. The source says: (§1) The minimal inhibitory concentrations (MIC's) of A-40104 factor A; 19,20-dihydro-A-40104 factor A; and the tetraacetyl derivative of A-40104A against various mycoplasma species, as determined by in vitro broth-dilution studies, are summarized in Table IX.

The next series deals with Mycoplasma synoviae. Briefly: in vitro broth-dilution MIC, mycoplasma. The class given is cell-based.
Text: as §1

For series [2], the system named is powdery mildew. As to the kind of experiment: control of powdery mildew on bean plants. In kind it is in vivo. The conditions noted are these: soil drench at 100 ppm. The source says:
(§2) The A-40104 antibiotics are also active against plant pathogens. […] The systemic activity of these antibiotics is especially advantageous in the control of plant pathogens or Spiroplasmas.

Series [3] concerns powdery mildew. Briefly: control of powdery mildew on barley plants. The class given is in vivo. The following applies: soil drench at 100 ppm.
Text: as §2

The test system of the next series is swine dysentery. The conditions noted are these: W. E. Brown et al. U.S. Pat. No. 4,041,175; cited from earlier work.

Regarding `CCC1(C)CC(OC(=O)CO[C@@H]2OC[C@@H](O)[C@H](O)[C@H]2O)C2(C)C(C)CCC3(CCC(=O)C32)C(C)C1O` (stereo partly shown) [19,20-dihydro-A-40104 factor A, 19,20-Dihydro-A-40104 Factor A], the MIC in series [1] is 12.5 µg/mL (≈ 24.4 µM); in the series on Spiroplasma citri it was no more than 0.01 µg/mL.
`C=CC1(C)CC(OC(=O)CO[C@@H]2OC[C@@H](O)[C@H](O)[C@H]2O)C2(C)C(C)CCC3(CCC(=O)C32)C(C)C1O` (stereo partly drawn) [A-40104 factor A, β,D-xylopyranosyl acetal derivative of pleuromutilin]: the MIC in the series with Eubacterium aerofaciens is 16 µg/mL (≈ 31.3 µM); in the series with Mycoplasma gallisepticum, less than 0.78 µg/mL; in the series with Mycoplasma synoviae it was less than 0.78 µg/mL; in [1], 12.5 µg/mL (≈ 24.5 µM). The “control of powdery mildew” value in the series on powdery mildew [2] and in the series on powdery mildew [3] was “control of powdery mildew is obtained” throughout. For the same compound, the solubility in chloroform entry in the series “solubility” (chloroform) is reported as “partially soluble”. The solubility in alcohols entry in the series “solubility” (ethanol) and in “solubility” (methanol) was “soluble” in each case. For the same compound, the solubility in water entry in the series “solubility” (water) is given as “insoluble”.
As to `C=C[C@]1(C)C[C@@H](OC(=O)CO)[C@]2(C)[C@H](C)CC[C@]3(CCC(=O)[C@H]32)[C@@H](C)[C@@H]1O` [A-40104 factor C, pleuromutilin], the “effect in swine dysentery” value in the series with swine dysentery was “effective in the treatment of swine dysentery”.
